Data as given in paper PMC8791477, “Evaluation of SARS-CoV-2 entry, inflammation and new therapeutics in human lung tissue cells” (PLoS Pathogens, 2022).
Where a name gives a salt, the structure may show the parent alone.

Legend:
in vitro [1] = conditions: human, CC50 HLT
ACE2 expression = assay: Modulation of ACE2 expression in enriched AT-II cells of HLT (flow cytometry); format: cell-based, human; conditions: 20h; for ACE2 expression after anti-inflammatory drugs (in words): 100μM to 0.8μM; for ACE2 expression in enriched AT-II cells after immune stimuli (in words): IL-1β 10 ng/ml, IL-10 and GM-CSF 100 ng/ml, IFN 100 U/ml
Procedure: VeroE6 and lung cells were incubated with five-fold serial dilutions of selected anti-inflammatory compounds (ranging from 100μM to 0.8μM) for 20h. […] For determination of ACE2 expression, the following surface staining antibodies were used: primary goat anti-ACE2 (R&D Systems), anti-CD45 (AF700, BioLegend), anti-EpCAM (APC, BioLegend), and anti-HLA-DR (BV421, BioLegend). For ACE2 detection, cells were then stained with secondary donkey anti-goat IgG (PE, R&D Systems) for 30 min at 4°C. A Fluorescent Minus One control (FMO) without primary anti-ACE2 antibody was used as a control. Cell viability was determined using an AQUA viability dye for flow cytometry (LIVE/DEAD fixable AQUA, Invitrogen). After fixation with PBS 2% PFA, cells were acquired in an LSR Fortessa (BD Biosciences) and analyzed using the FlowJo v10.6.1 software (TreeStar).

in vitro [2] = conditions: African green monkey
[3] = system: DNA-dependent DNA polymerases of some DNA viruses; conditions: cited from earlier work
SARS-CoV-2 = conditions: cited from earlier work
[4] = system: IL-6 and CXCL10 expression; assay: Immunomodulatory capacity: IL-6 and CXCL10 in LPS + IFN-γ stimulated HLT myeloid cells; format: cell-based, human; conditions: 20μM, LPS 50 ng/ml + IFN-γ 100 ng/ml, 20h
Procedure: HLT cells were cultured in a round-bottom 96-well plate containing 20 μM of cepharanthine, ergoloid, ciclesonide, hydroxychloroquine, ivermectin, or camostat mesylate alone or in combination with the stimuli LPS (50 ng/ml) and IFN-γ (100 ng/ml). For each patient, a negative control, cells treated with only medium, and a positive control, cells incubated in the presence of LPS and IFN-γ, were included. Immediately, brefeldin A (BD Biosciences) and monensin (BD Biosciences) were added to cells and cultured overnight at 37°C in 5% CO2. Next day, cellular suspensions were stained with the following antibodies: anti-CD11b (FITC, BioLegend), anti-CD69 (PE-CF594, BD Biosciences), anti-CD14 (APC-H7, BD Biosciences), anti-EpCAM (APC, BioLegend), anti-CD3 (BV650, BD Biosciences), anti-CD45 (BV605, BioLegend), and anti-HLA-DR (BV421, BioLegend). Cells were subsequently fixed and permeabilized using the Cytofix/Cytoperm kit (BD Biosciences) and intracellularly stained with anti-IL-6 (PE-Cy7, BioLegend), and anti-CXCL10 (PE, BioLegend). Cell viability was determined using an AQUA viability dye for flow cytometry (LIVE/DEAD fixable AQUA, Invitrogen). After fixation with PBS 2% PFA, cells were acquired in an LSR Fortessa (BD Biosciences), and data were analyzed using the FlowJo v10.6.1 software (TreeStar).

COVID-19 patients = conditions: cited from earlier work
HLT cells = conditions: for CC50: read-out: CC50 HLT, absence of virus
VeroE6 cells = conditions: for CC50: read-out: CC50 Vero E6, absence of virus
[5] = system: SARS-CoV-2 clinical isolate; format: cell-based
thrombin = conditions: cited from earlier work
[6] = 10µM, ref Hempel et al., Chemical Science 2021

For `C[C@]12CCC(=O)C=C1CC[C@@H]1[C@@H]2[C@@H](O)C[C@@]2(C)[C@H]1CC[C@]2(O)C(=O)CO` [Cortisol], the CC50 (in vitro [1]; absence of virus) was greater than 100 µM, the “ACE2 expression after anti-inflammatory drugs (in words)” value (ACE2 expression) was “no effect on ACE2 expression” and the CC50 (in vitro [2]; CC50 Vero E6, absence of virus) was greater than 100 µM.

In the case of `Nc1ncnc2c1ncn2[C@@H]1O[C@H](CO)[C@@H](O)[C@@H]1O` [Vidarabine], the CC50 (in vitro [1]; absence of virus) is given as greater than 100 µM, the “inhibition of viral DNA polymerases relative to those of host cells” value [3] is given as “Purine nucleoside analogue ^80. Competitively inhibits DNA-dependent DNA polymerases of some DNA viruses approximately 40 times more than those of host cells ^80” and the CC50 (in vitro [2]; CC50 Vero E6, absence of virus) is given as greater than 100 µM.

For `CN(C)C(=O)COC(=O)Cc1ccc(OC(=O)c2ccc(NC(=N)N)cc2)cc1` [Camostat, Camostat mesylate], the “activity in precision-cut lung slices (in words)” value (SARS-CoV-2; 0.5µM, ref Hoffmann et al, EBiomedicine 2021) is given as “non-active”, the “inhibition, donor 1” value (SARS-CoV-2; [6]) is given as 40% and the “inhibition, donor 2” value (SARS-CoV-2; [6]) is given as 60%. The “inhibition in precision-cut lung slices” value (SARS-CoV-2; 10µM, ref Hoffmann et al, EBiomedicine 2021) was “approx. 40%”, the CC50 (in vitro [1]) was greater than 100 µM and the “expression of CXCL10 in CD11b+CD14- myeloid cells (in words)” value [4] was “significantly reduced”. For the same molecule, the “expression of IL-6 in CD11b+CD14+ myeloid cells (in words)” value [4] was “significantly reduced”, the CC50 (in vitro [2]; CC50 Vero E6) was greater than 100 µM and the “clinical benefit (in words)” value (COVID-19 patients; COVID-19 patients receiving camostat within the first 48h of admission) was “no significant benefit”.

In the case of `CC(C)Cc1ccc(C(C)C(=O)O)cc1` (stereo not shown) [Ibuprofen], the CC50 (in vitro [1]; absence of virus) is reported as greater than 100 µM, the “ACE2 expression after anti-inflammatory drugs (in words)” value (ACE2 expression) is reported as “no effect on ACE2 expression” and the CC50 (in vitro [2]; CC50 Vero E6, absence of virus) is reported as greater than 100 µM.

With IL-1β the “ACE2 expression in enriched AT-II cells after immune stimuli (in words)” value (“ACE2 expression in enriched AT-II cells” for short) (ACE2 expression) was “decreased the fraction of AT-II cells expressing ACE2”.

In the case of Ivermectin, the CC50 (HLT cells) is reported as roughly 100 µM, the “expression of cytokines in the HLT inflammation model (in words)” value [4] is reported as “did not affect the expression of cytokines” and the CC50 (VeroE6 cells) is reported as 20.2 µM. The “proportion of PCR-positive patients (in words)” value (COVID-19 patients; seven days after treatment) was “failed to show a reduction”.

In the case of Ergoloid mesylates, the “cell toxicity in HLT cells” value (HLT cells; 20 μM, 48h) is reported as greater than 60%, the CC50 (HLT cells) is reported as roughly 100 µM and the “expression of cytokines in CD11b+CD14+ myeloid cells (in words)” value [4] is reported as “significantly reduced the expression of cytokines”. It also gave a CC50 (VeroE6 cells) of 18.7 µM.

For `CC(C)C(=O)OCC(=O)[C@@]12O[C@H](C3CCCCC3)O[C@@H]1C[C@H]1[C@@H]3CCC4=CC(=O)C=C[C@]4(C)[C@H]3[C@@H](O)C[C@@]12C` [Ciclesonide], the CC50 (in vitro [1]; absence of virus) was greater than 100 µM, the “expression of CXCL10 in CD11b+CD14- myeloid cells (in words)” value [4] was “induced CXCL10 secretion” and the CC50 (in vitro [2]; CC50 Vero E6, absence of virus) was greater than 100 µM.

For GM-CSF, the “ACE2 expression in enriched AT-II cells” value (ACE2 expression) was “did not impact ACE2 protein production”.

For `CCN(CCO)CCCC(C)Nc1ccnc2cc(Cl)ccc12` (stereo not shown) [Hydroxychloroquine], the CC50 (in vitro [1]; absence of virus) was greater than 100 µM, the “cytotoxicity in HLT (in words)” value (HLT cells; up to 100μM) was “no apparent cytotoxicity” and the “cytotoxicity in VeroE6 (in words)” value (VeroE6 cells; up to 100μM) was “no apparent cytotoxicity”. For the same molecule, the “viral replication of replication-competent SARS-CoV-2 in HLT cells (in words)” value [5] was “effective”, the CC50 (in vitro [2]; CC50 Vero E6, absence of virus) was greater than 100 µM and the “effectiveness as a treatment for COVID-19 (in words)” value (COVID-19 patients; clinical trials) was “failed to show effectiveness”.

In the case of `O=c1c(O)c(-c2cc(O)c(O)c(O)c2)oc2cc(O)cc(O)c12` [Myricetin], the CC50 (in vitro [1]; absence of virus) is given as greater than 100 µM, the IC50 (thrombin) is given as 56 µM and the CC50 (in vitro [2]; CC50 Vero E6, absence of virus) is given as greater than 100 µM.

In the case of `C[C@]12C=CC(=O)C=C1CC[C@@H]1[C@@H]2C(=O)C[C@@]2(C)[C@H]1CC[C@]2(O)C(=O)CO` [Prednisone], the CC50 (in vitro [1]; absence of virus) is reported as greater than 100 µM, the “ACE2 expression after anti-inflammatory drugs (in words)” value (ACE2 expression) is reported as “no effect on ACE2 expression” and the CC50 (in vitro [2]; CC50 Vero E6, absence of virus) is reported as greater than 100 µM.

In the case of `COc1ccc2cc1Oc1ccc(cc1)C[C@H]1c3c(cc4c(c3Oc3cc5c(cc3OC)CCN(C)[C@@H]5C2)OCO4)CCN1C` [Cepharanthine], the CC50 (in vitro [1]; absence of virus) is reported as 13.8 µM, the CC50 (HLT cells) is reported as 16.1 µM and the “expression of IL-6 in CD11b+CD14+ myeloid cells (in words)” value [4] is reported as “reduced IL-6 production”. The CC50 (VeroE6 cells) was 22.4 µM and the CC50 (in vitro [2]; CC50 Vero E6, absence of virus) was 22.3 µM.

For `C[C@@H]1C[C@H]2[C@@H]3CCC4=CC(=O)C=C[C@]4(C)[C@@]3(F)[C@@H](O)C[C@]2(C)[C@@]1(O)C(=O)CO` [Dexamethasone], the CC50 (in vitro [1]; absence of virus) is given as greater than 100 µM, the CC50 (in vitro [2]; CC50 Vero E6, absence of virus) is given as greater than 100 µM and the “28-day mortality (in words)” value (COVID-19 patients; patients receiving invasive mechanical ventilation) is given as “decreased”.

B1: IL-10 (protein, UniProt P22301 19-178, looked up)
Interleukin-10: SPGQGTQSENSCTHFPGNLPNMLRDLRDAFSRVKTFFQMKDQLDNLLLKESLLEDFKGYLGCQALSEMIQFYLEEVMPQAENQDPDIKAHVNSLGENLKTLRLRLRRCHRFLPCENKSKAVEQVKNAFNKLQEKGIYKAMSEFDIFINYIEAYMTMKIRN
With B1 the “ACE2 expression in enriched AT-II cells” value (ACE2 expression) was “did not impact ACE2 protein production”.
